# Values of other authors, collected in patent US20180133151A1, “NEBULIZED TIOTROPIUM” (GLENMARK SPECIALTY S.A., priority 2016, published 2018).
structure (smiles),measurement,setting,value
"C[N+]1(C)C2CC(OC(=O)C(O)(c3cccs3)c3cccs3)CC1C1OC12 (stereo not drawn) [Tiotropium bromide, (1+,2β,4β,7β)-7-[(hydroxydi-2-thienylacetyl)oxy]-9,9-dimethyl-3-oxa-9-azoniatricyclo[3.3.1.02,4]nonane bromide]",Solubility in methanol,methanol,soluble
same,Solubility in water,water,sparingly soluble
